Source: PMC4478171, “Synthesis, characterization, and preclinical validation of a PET radiopharmaceutical for interrogating Aβ (β-amyloid) plaques in Alzheimer’s disease” (EJNMMI Research, 2015)
“Also recorded” adds a separate entry of the source.

Tests used:
[1] = Metabolite analysis in human serum (radio-HPLC, radio-TLC); assay type: in vitro ADME; conditions: 37°C up to 60 min, radio-HPLC and radio-TLC
Method: Human serum (Sigma-Aldrich, St. Louis, MO, USA) was thawed. Serum (100 μL) was taken, diluted with saline to 10%, and incubated with HPLC-purified fraction of ^18F-7B (100 μCi each) at 37°C for 30 and 60 min. Samples were periodically withdrawn and analyzed on radio-HPLC using eluent mixture described above and radio-TLC using an eluent mixture of ethanol/saline in a ratio of 90:10 (to allow mobility of parental compound and other hydrophobic metabolites off the surface to analyze protein binding) and 10:90 (to analyze hydrophilic metabolites).

[2] = Biodistribution studies in normal mice; assay type: in vivo, FVB mice; conditions: for Blood uptake / Bone uptake / Brain uptake / Kidney uptake / Liver uptake: FVB mice, n = 3
Method: All animal procedures were approved by the Washington University Animal Studies Committee. Pharmacokinetics of ^18F-7B in brain and other critical tissues of normal male 12-week-old FVB (wild type (WT); 28 to 36 g) mice were determined as previously described. Briefly, ^18F-7B (740 kBq) was dissolved in 100-μL saline containing 10% ethanol. All animals were anesthetized by isofluorane inhalation and injected with radiotracer ^18F-7B (740 kBq, 100 μL) via bolus injection through a tail vein. Animals were sacrificed by cervical dislocation under anesthesia at 5, 30, 60, and 120 min after injection (n = 3 each). Blood samples were obtained by cardiac puncture, organs then harvested rapidly, and all tissue samples analyzed for γ-activity. Data are expressed as the percentage injected dose (%ID) per gram of tissue (tissue kBq (injected kBq)^−1 (g tissue)^−1 × 100).

AD homogenates = AD homogenates (Homo sapiens, UniProt P05067); assay: Saturation radioligand binding to AD brain homogenates (insoluble fraction)
AD homogenates, sequence (P05067 672-711 limits assumed): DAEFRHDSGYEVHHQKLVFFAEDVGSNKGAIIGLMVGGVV
Method: Well-established literature procedures were used for preparation of AD homogenates. Grey matter was isolated from frozen postmortem frontal cortex tissue by dissection with a scalpel. To prepare insoluble fractions, dissected tissue was sequentially homogenized in four buffers (3 mL/g wet weight of tissue) with glass dounce tissue grinders (Kimble, Vineland, NJ, USA): 1) high salt (HS) buffer: 50 mM Tris-HCl pH 7.5, 750 mM NaCl, 5 mM EDTA; 2) HSbuffer with 1%Triton X-100; 3) HSbuffer with 1%Triton X-100 and 1 M sucrose; and 4) phosphate-buffered saline (PBS). Homogenates were centrifuged at 100,000×g; after each homogenization step, the pellet was resuspended, and homogenized in the next buffer in the sequence. For comparison in initial binding studies, unfractionated tissue homogenates were also prepared by homogenization of tissue in only PBS. Binding assays were performed using previously described methods. Briefly, a fixed concentration (1 μM/well) of Aβ1-42 fibrils was incubated for 1 h at 37°C with increasing concentrations of ^18F-7B (1.5 to 100 nM) in 30 mM Tris-HCl pH 7.4, 0.1% BSA in a reaction volume of 150 μL. A fixed ratio of hot:cold (^18F-7B and 7A) was used for all radioligand concentrations. The exact hot:cold (^18F-7B:7A) ratio was measured in each experiment by counting an aliquot of a sample (2 μL) of the radioligand preparation in a scintillation counter. Binding of ^18F-7B to human brain homogenates was assessed by incubating samples of insoluble fraction (5-μg insoluble protein/well) from AD subjects, with increasing concentrations of ^18F-7B (1.5 to 100 nM). Nonspecific binding was determined in parallel experiments utilizing 7A (2.5 μM) for Aβ1-42 fibrils and 7A (5 μM) for AD tissue as a competitor. Bound and free radioligand were separated by vacuum filtration through glass fiber 96-well filter plates (Millipore Multiscreen FB filter plate), followed by washes using ice-cold assay buffer (3 × 150 μL). Glass fiber filters containing the bound ligand were mixed with Optiphase Supermix scintillation cocktail (150 μL; PerkinElmer, Waltham, MA, USA) and counted immediately. All data were obtained in triplicate and analyzed by curve fitting to a one-site binding model using nonlinear regression employing Graphpad Prism software (version 4.0) to determine Kd and Bmax values. Bmax values were calculated in pmol/gram wet weight of brain tissue.

Aβ plaques = Aβ plaques (Homo sapiens, UniProt P05067); assay: MicroPET/CT imaging in APP/PS1 versus WT mice; assay type: in vivo
Aβ plaques, sequence (P05067 672-711 limits assumed): as above
Method: Following anesthesia, the mice were secured with their heads in the center of the field of view, fixed in the scanner in a prone head-first position (HFP), and placed in an acrylic-imaging tray. MicroPET imaging was performed using Inveon PET/CT scanner (Siemens Medical Solutions, Malvern, PA, USA) following intravenous tail-vein injection of HPLC-purified [^18F]7B (12.95 MBq; 28 μL; 35% ethanol in saline) employing the catheter system in a slow bolus, followed by flushing with isotonic saline solution. PET dynamic data acquisition was performed over 75 min starting immediately following injection of the tracer. The emission data were normalized and corrected for attenuation, scatter, and decay. Attenuation correction was obtained using the co-registered CT data. The image volume consisted of 256 × 256 × 159 voxels, with a size of 0.39 × 0.39 × 0.8 mm^3 per voxel for the Inveon scanner. For anatomical visualization, PET images were co-registered with CT images from an Inveon PET/CT scanner. For analysis, brain uptake (Bq/L) was normalized to injected dose and weight of animals. […] Additionally, SUV values in time-activity curves were normalized to the average activity measured in those regions between 1 to 2 min post-injection. All image data were processed and analyzed using Inveon Research Workspace 4.1 software (Siemens, Malvern, PA, USA). […]

Lipophilicity (log P) = assay type: physicochemical; conditions: octanol/water

Blood uptake ([2]; 5 min post i.v.): 3.18 ± 0.23 %ID/g | Bone uptake ([2]; 5 min post i.v.): 1.61 ± 0.20 %ID/g | Brain uptake ([2]; 5 min post i.v.): 7.23 ± 0.47 %ID/g | Kidney uptake ([2]; 5 min post i.v.): 6.72 ± 0.44 %ID/g | Liver uptake ([2]; 5 min post i.v.): 16.22 ± 1.43 %ID/g | Blood uptake ([2]; 30 min post i.v.): 2.51 ± 0.09 %ID/g | Bone uptake ([2]; 30 min post i.v.): 2.08 ± 0.13 %ID/g | Brain uptake ([2]; 30 min post i.v.): 2.27 ± 0.13 %ID/g | Kidney uptake ([2]; 30 min post i.v.): 2.83 ± 0.09 %ID/g | Liver uptake ([2]; 30 min post i.v.): 5.21 ± 0.08 %ID/g | Blood uptake ([2]; 60 min post i.v.): 2.40 ± 0.17 %ID/g | Bone uptake ([2]; 60 min post i.v.): 3.41 ± 0.37 %ID/g | Brain uptake ([2]; 60 min post i.v.): 2.00 ± 0.15 %ID/g | Kidney uptake ([2]; 60 min post i.v.): 2.20 ± 0.07 %ID/g | Liver uptake ([2]; 60 min post i.v.): 3.44 ± 0.20 %ID/g | Blood uptake ([2]; 120 min post i.v.): 1.86 ± 0.05 %ID/g | Bone uptake ([2]; 120 min post i.v.): 5.27 ± 0.34 %ID/g | Brain uptake ([2]; 120 min post i.v.): 1.55 ± 0.01 %ID/g | Kidney uptake ([2]; 120 min post i.v.): 1.59 ± 0.03 %ID/g | Liver uptake ([2]; 120 min post i.v.): 2.73 ± 0.16 %ID/g | brain uptake clearance ratio 5 min/120 min ([2]; %ID/g brain, normal mice): 4.66 | defluorination indicated by bone accumulation ([2]; as a function of time over 2 h, normal mice): slight defluorination | fold higher affinity for AD homogenates compared with fibrils (AD homogenates; AD homogenates vs Aβ1-42 fibrils): 3.4 fold | Bmax (AD homogenates; AD homogenates, one-site model): 1,432 pmol/g wet weight | fold lower binding affinity to AD homogenates than Florbetapir (AD homogenates; comparator value from ref 11): 5 fold | fold lower binding affinity to AD homogenates than Flutemetamol (AD homogenates; comparator value from ref 16): 2.6 fold | fold lower BP than 11C-PIB (AD homogenates; homogenates, comparator from ref 28): 6 fold | fold lower BP than 18F-Florbetaben (AD homogenates; homogenates, comparator from ref 36): 2 fold | Kd (AD homogenates; saturable specific binding, one-site model, nonspecific binding with 7A (5 μM)): 17.7 nM | retention in brain/frontal cortex of transgenic mice compared with WT (Aβ plaques; APP/PS1 vs age-matched WT mice, 22.6 months, dynamic PET 1 to 75 min, i.v.): significantly higher retention | logP (Lipophilicity (log P)): 1.3
SMILES: CN(C)c1ccc(/C=C/c2nc3ccc(OCC[18F])cc3s2)cn1 [^18F-7B, (E)-5-(2-(6-(2-[^18F]-fluoroethoxy)-benzo[d]thiazol-2-yl)vinyl)-N,N-dimethylpyridin-2-amine]
stability in human serum [1]: presence of parental species in human serum; also recorded: presence of primarily the parental compound | retention in extracerebral regions (Aβ plaques; nasal and eye cavities, microPET/CT): considerable retention in extracerebral regions
